From patent publication US12583851B2, “Heteroaryl-substituted pyrazine derivatives as pesticides” (Elanco Animal Health GmbH, priority 2019, dated 2026)

Columns and labels:
Assay type in all cases: in vivo
[1] = system: adult brown dog ticks (Rhipicephalus sanguineus); test: Rhipicephalus sanguineus in-vitro contact test, adult brown dog ticks; settings: 48 h, 5 μg/cm^2 (=500 g/ha), after 48 hours, read-out: efficacy (ticks dead or moribund)
In short: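 Acetone solution coated on glass tube inner walls (900 ppm, giving 5 μg/cm^2); after drying, 5–10 adult ticks added and kept 48 h at room temperature. Efficacy scored as percent dead or moribund, i.e., ticks unable to climb away on a 45–50 °C heating plate within 5 min.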

[2] = system: adult engorged female ticks (Rhipicephalus microplus); test: Rhipicephalus (Boophilus) microplus injection test; settings: 168 h, 4 μg/animal, egg deposition after 7 days, read-out: efficacy (infertile eggs)
Protocol: Rhipicephalus (Boophilus) microplus—Injection Test
(§1) Solvent: dimethyl sulfoxide
To produce a suitable preparation of active compound, 10 mg of active compound are dissolved in 0.5 mL solvent, and the concentrate is diluted with solvent to the desired concentration.
Five adult engorged female ticks (Rhipicephalus microplus) are injected with 1 μL compound solution into the abdomen. The ticks are transferred into replica plates and incubated in a climate chamber.
After 7 days egg deposition of fertile eggs is monitored. Eggs where fertility is not visible are stored in a climate chamber till hatching after about 42 days. An efficacy of 100% means all eggs are infertile; 0% means all eggs are fertile.

[3] = system: larvae of the southern green stink bug (Nezara viridula); test: Nezara viridula spray test; settings: 96 h, 100 g/ha, barley plants, after 4 days
Protocol: Nezara viridula—Spray Test
(§2) Solvent: 78.0 parts by weight of acetone • • 1.5 parts by weight of dimethylformamide
(§3) Emulsifier: alkylarylpolyglycol ether
(§4) To produce a suitable preparation of active compound, 1 part by weight of active compound is mixed with the stated amount of solvent, and the concentrate is diluted with water, containing an emulsifier concentration of 1000 ppm, to the desired concentration. Further test concentrations are prepared by dilution with emulsifier containing water.
Barley plants (Hordeum vulgare) infested with larvae of the southern green stink bug (Nezara viridula) are sprayed with a test solution containing the desired concentration of the active ingredient.
After 4 days mortality in % is determined. 100% means all the stink bugs have been killed; 0% means none of the stink bugs have been killed.

[4] = system: adult mosquitoes Anopheles funestus strain FUMOZ-R; test: Anopheles funestus test (ANPHFU surface treatment & contact assay); settings: 24 hours after contact, read-out: mortality (efficacy); for mortality at 20 mg/m2: surface concentration 20 mg/m^2, 30 minutes exposure
Protocol: Anopheles funestus Test (ANPHFU Surface Treatment & Contact Assay)
(§5) Solvent: Aceton+2000 ppm rapeseed oil methyl ester (RME)
(§6) In order to produce a sufficient, active ingredient containing solution it is necessary to solve the test compound in the solvent-mix (acetone at 2 mg/ml/RME 2000 ppm). This solution is pipetted onto a glazed tile and after evaporation of the acetone, adult mosquitoes of the species Anopheles funestus strain FUMOZ-R (Hunt et al., Med. Vet. Entomol. 2005 Sep. 19(3): 271-275) are placed onto the dried surface. The exposure time is 30 minutes.
(§7) Mortality in percent (%) is determined 24 hours after contact of the insects to the treated surface. 100% mortality means that all tested insects are dead, whereas 0% means that no insect died.

[5] = system: adult unfed cat fleas (Ctenocephalides felis); test: Ctenocephalides felis oral test; settings: 48 h, 100 ppm in citrated cattle blood, after 2 days
Protocol: Ctenocephalides felis—Oral Test
as §1
To produce a suitable preparation of active compound, 10 mg of active compound are dissolved in 0.5 mL solvent, and the concentrate is diluted with citrated cattle blood to the desired concentration.
Approximately 20 adult unfed cat fleas (Ctenocephalides felis) are placed in a flea chamber whose top and bottom is covered with gauze. A chamber whose bottom is sealed with parafilm, is filled with the blood-compound solution and placed on top of the flea chamber, so that the fleas can suck the blood. The blood chamber is heated to 37° C. whereas the flea chamber is kept at room temperature.
After 2 days mortality in % is determined. 100% means all the fleas have been killed; 0% means none of the fleas have been killed.

[6] = system: adult mosquitoes Aedes aegypti strain MONHEIM; test: Aedes aegypti test (AEDSAE surface treatment & contact assay); settings: 24 hours after contact, read-out: mortality (efficacy); for mortality at 20 mg/m2: surface concentration 20 mg/m^2, 30 minutes exposure
Protocol: Aedes aegypti Test (AEDSAE Surface Treatment & Contact Assay)
as §5
as §6, with “Aedes aegypti” for “Anopheles funestus”, “MONHEIM” for “FUMOZ-R (Hunt et al., Med. Vet. Entomol. 2005 Sep. 19(3): 271-275)”
as §7

[7] = system: Rhipicephalus (Boophilus) microplus larvae (strain Parkhurst, resistant against synthetic pyrethroids); test: Rhipicephalus (Boophilus) microplus in-vitro contact test, larval cattle tick; settings: after 48 hours, read-out: efficacy (larvae dead or moribund); for pest or weed control at 1 µg/cm2, 100 g/ha: 1 μg/cm^2 (=100 g/ha); for pest or weed control at 5 µg/cm2, 500 g/ha: 5 μg/cm^2 (=500 g/ha)
In short: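 Pyrethroid-resistant larvae (strain Parkhurst), 20–50 per tube, exposed by contact to a dried acetone film of compound (5 μg/cm² at 900 ppm) for 48 h at 27 °C and 85% humidity. Percent dead or moribund larvae scored from negative geotactic behaviour.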

[8] = system: southern root-knot nematode (Meloidogyne incognita); test: Meloidogyne incognita test; settings: 20 ppm, after 14 days
Protocol: Meloidogyne incognita—Test
Solvent: 125.0 parts by weight of acetone
To produce a suitable preparation of active compound, 1 part by weight of active compound is mixed with the stated amount of solvent, and the concentrate is diluted with water to the desired concentration.
Vessels are filled with sand, a solution of the active ingredient, a suspension containing eggs and larvae of the southern root-knot nematode (Meloidogyne incognita) and salad seeds. The salad seeds germinate and the seedlings grow. Galls develop in the roots.
After 14 days the nematicidal activity is determined based on the percentage of gall formation. 100% means no galls were found and 0% means the number of galls found on the roots of the treated plants was equal to that in untreated control plants.

[9] = system: larvae of the banded cucumber beetle (Diabrotica balteata); test: Diabrotica balteata spray test; settings: 168 h, after 7 days, read-out: efficacy (seedling growth); for pest or weed control at 6.4 µg/disc, 20 g/ha: 20 g/ha (=6.4 μg/well); for pest or weed control at 32 µg/disc, 100 g/ha: 100 g/ha (=32 μg/well)
In short: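 Efficacy was read 7 days after infesting each unit with 10–20 banded cucumber beetle larvae, as % of seedlings growing like untreated, uninfested controls. Before infestation, wheat seeds germinated 1 day on agar (5 per well) were sprayed with the active ingredient. The active was formulated in acetone/DMF and diluted in water containing emulsifier.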

[10] = system: fall armyworm larvae (Spodoptera frugiperda); test: Spodoptera frugiperda spray test; settings: 168 h, maize leaf sections, after 7 days
In short: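 Percent larval kill read at day 7, from 0% (no caterpillars dead) to 100% (all dead). Larvae were placed on dried Zea mays leaf discs previously sprayed with test preparations made from an acetone/DMF solution diluted in 1000 ppm emulsifier-containing water.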

[11] = system: adult cat fleas (Ctenocephalides felis); test: Ctenocephalides felis in-vitro contact test, adult cat flea; settings: after 48 hours, read-out: efficacy (fleas dead or moribund); for pest or weed control at 1 µg/cm2, 100 g/ha: 1 μg/cm^2 (=100 g/ha); for pest or weed control at 5 µg/cm2, 500 g/ha: 5 μg/cm^2 (=500 g/ha)
In short: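 Acetone solution coated onto glass tube walls; 900 ppm gives 5 μg/cm². Once dry, 5–10 adult fleas per tube held at room temperature for 48 h. Efficacy (%) is the share of fleas dead or moribund, i.e. unable to climb away on a 45–50° C heating plate.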

[12] = system: green peach aphid (Myzus persicae); test: Myzus persicae spray test; settings: foliar, 120 h, Chinese cabbage leaf disks, after 5 days
Protocol: Myzus persicae—Spray Test
Solvent: 78.0 parts by weight acetone • 1.5 parts by weight dimethylformamide
as §3
as §4, with “solvents” for “solvent,”, “and” for “and the concentrate”
Chinese cabbage (Brassica pekinensis) leaf disks infected with all instars of the green peach aphid (Myzus persicae), are sprayed with a preparation of the active ingredient of the desired concentration.
After 5 days mortality in % is determined. 100% means all aphids have been killed and 0% means none of the aphids have been killed.

[13] = system: adult flies Musca domestica strain WHO-N; test: Musca domestica test (MUSCDO surface treatment & contact assay); settings: surface concentration 20 mg/m^2, 30 minutes exposure, 24 hours after contact, read-out: mortality (efficacy)
Protocol: Musca domestica Test (MUSCDO Surface Treatment & Contact Assay)
as §5
as §6, with “flies” for “mosquitoes”, “Musca domestica” for “Anopheles funestus”, “WHO-N” for “FUMOZ-R (Hunt et al., Med. Vet. Entomol. 2005 Sep. 19(3): 271-275)”
as §7

[14] = system: brown planthopper (Nilaparvata lugens); test: Nilaparvata lugens spray test; settings: 96 h, 500 g/ha, rice plants, after 4 days
Protocol: Nilaparvata lugens—Spray Test
as §2, §3
as §4, with “solvents” for “solvent,”, “and” for “and the concentrate”
Rice plants (Oryza sativa) are sprayed with a preparation of the active ingredient of the desired concentration and the plants are infested with the brown planthopper (Nilaparvata lugens).
After 4 days mortality in % is determined. 100% means all planthoppers have been killed and 0% means none of the planthoppers have been killed.

[15] = surface concentration 4 mg/m^2, 30 minutes exposure

Compound	pest or weed control at 5 µg/cm2, 500 g/ha [1] [%]	pest or weed control at 0.004 mg [2] [%]	mortality at 100 ppm [5] [%]	pest or weed control at 1 µg/cm2, 100 g/ha [7] [%]	pest or weed control at 5 µg/cm2, 500 g/ha [7] [%]	nematicidal activity (based on gall formation) [8] [%]	pest or weed control at 6.4 µg/disc, 20 g/ha [9] [%]	pest or weed control at 32 µg/disc, 100 g/ha [9] [%]	mortality at 100 g/ha [10] [%]	also measured
CC(NC(=O)c1cncc(C(F)(F)F)c1)c1nccnc1-c1ncccn1 (racemic) [Example I-9, (rac)-N-(1-(3-(Pyrimidin-2-yl)pyrazin-2-yl)ethyl)-5-(trifluoromethyl)nicotinamide]	80	100	80	100	100					mortality at 100 g/ha [3]: 90%; mortality at 4 mg/m2 [4, 15]: 80 to 100%; mortality at 20 mg/m2 [4]: 80 to 100%; mortality at 4 mg/m2 [6, 15]: 80 to 100%; mortality at 20 mg/m2 [6]: 80 to 100%
CC(NC(=O)c1cc(Cl)cc(OC(F)(F)F)c1)c1nccnc1-c1nccs1 (racemic) [Example I-52, (rac)-3-Chloro-N-{1-[3-(1,3-thiazol-2-yl)pyrazin-2-yl]ethyl}-5-(trifluoromethoxy)benzamide]						90	100	100		
CC(NC(=O)c1cc(Cl)cc(Br)c1)c1nccnc1-c1nccs1 (racemic) [Example I-54, (rac)-3-Bromo-5-chloro-N-{1-[3-(1,3-thiazol-2-yl)pyrazin-2-yl]ethyl}benzamide]	80				90	90		100		
CC(NC(=O)c1cc(Br)cc(C#N)c1)c1nccnc1-c1nccs1 (racemic) [Example I-55, (rac)-3-Bromo-5-cyano-N-{1-[3-(1,3-thiazol-2-yl)pyrazin-2-yl]ethyl}benzamide]			100			100				
CC(NC(=O)c1cc(C(F)(F)F)cc(C(F)(F)F)c1)c1nccnc1-c1ncc(C(=O)N(CC2CC2)C(C)C)s1 (racemic) [Example I-63, (rac)-2-(3-{1-[3,5-Bis(trifluoromethyl)benzamido]ethyl}pyrazin-2-yl)-N-(cyclopropylmethyl)-N-(propan-2-yl)-1,3-thiazole-5-carboxamide]		100				90	100	100	100	
CC(NC(=O)c1cc(C(F)(F)F)cc(C(F)(F)F)c1)c1nccnc1-c1ncc(C#N)s1 (racemic) [Example I-82, (rac)-N-{1-[3-(5-Cyano-1,3-thiazol-2-yl)pyrazin-2-yl]ethyl}-3,5-bis(trifluoromethyl)benzamide]				100	100	100		100		pest or weed control at 1 µg/cm2, 100 g/ha [11]: 100%; pest or weed control at 5 µg/cm2, 500 g/ha [11]: 100%
CC(NC(=O)c1cc(Br)cc(OC(F)(F)F)c1)c1nccnc1-c1ccccn1 (stereo not drawn) [Example I-17]		100	100	80	90	90	100	100	83	
CCN(C)C(=O)c1cnc(-c2nccnc2[C@H](C)NC(=O)c2cc(C(F)(F)F)cc(C(F)(F)F)c2)s1 [Example I-85, 2-(3-{(1S)-1-[3,5-bis(trifluoromethyl)benzamido]ethyl}pyrazin-2-yl)-N-ethyl-N-methyl-1,3-thiazole-5-carboxamide]	100			100	100		100	100	100	mortality at 100 g/ha [12]: 90%; mortality at 20 mg/m2 [13]: 80 to 100%; mortality at 20 mg/m2 [4]: 80 to 100%; mortality at 500 g/ha [14]: 100%; mortality at 20 mg/m2 [6]: 80 to 100%; pest or weed control at 1 µg/cm2, 100 g/ha [11]: 100%; pest or weed control at 5 µg/cm2, 500 g/ha [11]: 100%
